The format of series [1] is in vitro ADME, human. How it is done:
(§1) The term "skin flux" intends the rate of transfer of drug across skin as measured by the method of Merritt and Cooper (J Controlled Release (1984) 1:161). The units of flux are preferably μg/cm^2 /hr.
The following examples further illustrate the invention and its unique characteristics. These examples are not intended to limit the invention in any manner. In the following examples in vitro steady state transdermal flux across human cadaver skin was determined using the method of Merritt and Cooper, supra. Unless otherwise indicated percentages and proportions are by volume.
Formulations of progesterone at varying concentrations were made by mixing progesterone with the indicated ingredients and applied to cadaver skin. The meanings of the abbreviations that appear in the table are: Gly=glycerine; GDO=glycerol dioleate; ML=methyl laurate; OA=oleic acid; GMO=glycerol monooleate.
Additional progesterone systems were formulated and tested as in Example 1. Abbreviations are as in Example 1. Progesterone was present at saturation in system 1 and below saturation in systems 2-6.
Formulations of the hydrophilic drugs oxybutynin HCl and mecamylamine HCl were prepared and tested as in Examples 1 and 2. The formulations of Table 3 containing oxybutynin HCl at 40 mg/ml were saturated and the formulations of Table 4 containing 80 mg/ml of mecamylamine HCl were saturated. All other systems were at drug concentrations below saturation.
[…]. The matrix containing 30% norethindrone acetate was saturated; all others were subsaturated.

Series [2] in a line: cumulative permeation at 24 hr through skin in vitro. Type of series: in vitro ADME, human. The following applies: for Cumulative Permeation: 24 hr. As to the method:
as §1
The following examples further illustrate the invention and its unique characteristics. These examples are not intended to limit the invention in any manner. In the following examples in vitro steady state transdermal flux across human cadaver skin was determined using the method of Merritt and Cooper, supra. Unless otherwise indicated percentages and proportions are by volume. […]
[…]. The matrix containing 8% estradiol was saturated; the others were subsaturated.
The matrix containing 8% estradiol was saturated; the others were subsaturated.

Counter-ions that a name gives are not always drawn. Like-named read-outs stand apart in the source and are kept apart here.

Consider four molecules from patent publication US5164190A, “Subsaturated transdermal drug delivery device exhibiting enhanced drug flux” (Theratech, Inc., priority 1990, dated 1992).

For the molecule `CCN(CC)CC#CCOC(=O)C(O)(c1ccccc1)C1CCCCC1` (stereo not shown) [Oxybutyrin, oxybutynin HCl], the Flux in series [1] (Table 3 system 1, 5 mg/ml, 40/53/5/2 EtOH/H2O/Gly/GMO, N=3) is 5.6 ± 0.9 μg/cm^2 /hr; in series [1] (Table 3 system 1, 10 mg/ml, 40/53/5/2 EtOH/H2O/Gly/GMO, N=6), 13.3 ± 2.6 μg/cm^2 /hr; in series [1] (Table 3 system 1, 20 mg/ml, 40/53/5/2 EtOH/H2O/Gly/GMO, N=12), 16.9 ± 5.2 μg/cm^2 /hr; in series [1] (Table 3 system 1, 40 mg/ml (saturated), 40/53/5/2 EtOH/H2O/Gly/GMO, N=4), 29.1 ± 11.2 μg/cm^2 /hr; in series [1] (Table 3 system 2, 5 mg/ml, 40/54/5/1 EtOH/H2O/Gly/GMO, N=3), 8.0 ± 1.4 μg/cm^2 /hr; in series [1] (Table 3 system 2, 10 mg/ml, 40/54/5/1 EtOH/H2O/Gly/GMO, N=6) it was 10.1 ± 3.3 μg/cm^2 /hr. For the same molecule, the Flux in series [1] (Table 3 system 2, 20 mg/ml, 40/54/5/1 EtOH/H2O/Gly/GMO, N=12) worked out at 17.5 ± 5.1 μg/cm^2 /hr; in series [1] (Table 3 system 2, 40 mg/ml (saturated), 40/54/5/1 EtOH/H2O/Gly/GMO, N=5), 38.8 ± 18.9 μg/cm^2 /hr; in series [1] (Table 3 system 3, 5 mg/ml, 30/63/5/2 EtOH/H2O/Gly/GMO, N=3), 2.2 ± 0.2 μg/cm^2 /hr; in series [1] (Table 3 system 3, 10 mg/ml, 30/63/5/2 EtOH/H2O/Gly/GMO, N=9) it was 8.3 ± 3.8 μg/cm^2 /hr; in series [1] (Table 3 system 3, 20 mg/ml, 30/63/5/2 EtOH/H2O/Gly/GMO, N=12), 14.8 ± 6.1 μg/cm^2 /hr; in series [1] (Table 3 system 3, 40 mg/ml (saturated), 30/63/5/2 EtOH/H2O/Gly/GMO, N=6), 23.9 ± 10.0 μg/cm^2 /hr. In addition, the Flux in series [1] (Table 3 system 4, 5 mg/ml, 30/64/5/1 EtOH/H2O/Gly/GMO, N=3) is on record as 1.7 ± 0.3 μg/cm^2 /hr; in series [1] (Table 3 system 4, 10 mg/ml, 30/64/5/1 EtOH/H2O/Gly/GMO, N=6), 5.4 ± 2.5 μg/cm^2 /hr; in series [1] (Table 3 system 4, 20 mg/ml, 30/64/5/1 EtOH/H2O/Gly/GMO, N=15) it was 13.6 ± 5.2 μg/cm^2 /hr; in series [1] (Table 3 system 4, 40 mg/ml (saturated), 30/64/5/1 EtOH/H2O/Gly/GMO, N=6), 27.5 ± 13.1 μg/cm^2 /hr.

`C[C@]12CC[C@@H]3c4ccc(O)cc4CC[C@H]3[C@@H]1CC[C@@H]2O` [estradiol]: the “Cumulative Permeation” value was found to be 11.36 μg/cm^2 in series [2] (Table 7, 1% estradiol, acrylic adhesive matrix with 20% sorbitan monooleate, S.D. 1.40); 28.31 μg/cm^2 in series [2] (Table 7, 2% estradiol, acrylic adhesive matrix with 20% sorbitan monooleate, S.D. 6.24); 40.88 μg/cm^2 in series [2] (Table 7, 3% estradiol, acrylic adhesive matrix with 20% sorbitan monooleate, S.D. 6.64); 44.94 μg/cm^2 in series [2] (Table 7, 4% estradiol, acrylic adhesive matrix with 20% sorbitan monooleate, S.D. 4.46); 22.56 μg/cm^2 in series [2] (Table 7, 6% estradiol, acrylic adhesive matrix with 20% sorbitan monooleate, S.D. 3.03); 12.93 μg/cm^2 in series [2] (Table 7, 8% estradiol (saturated), acrylic adhesive matrix with 20% sorbitan monooleate, S.D. 5.25). Besides, the “Cumulative Permeation” value in series [2] (Table 8, 1% estradiol, acrylic adhesive matrix without permeation enhancer, S.D. 1.84) is on record as 9.33 μg/cm^2; in series [2] (Table 8, 2% estradiol, acrylic adhesive matrix without permeation enhancer, S.D. 1.42), 16.55 μg/cm^2; in series [2] (Table 8, 3% estradiol, acrylic adhesive matrix without permeation enhancer, S.D. 2.16), 21.21 μg/cm^2; in series [2] (Table 8, 4% estradiol, acrylic adhesive matrix without permeation enhancer, S.D. 0.64), 16.11 μg/cm^2; in series [2] (Table 8, 6% estradiol, acrylic adhesive matrix without permeation enhancer, S.D. 0.27), 18.42 μg/cm^2; in series [2] (Table 8, 8% estradiol (saturated), acrylic adhesive matrix without permeation enhancer, S.D. 3.93), 9.20 μg/cm^2. Besides, the “maximum permeation versus estradiol concentration” value in series [2] (matrices with sorbitan monolaurate, ointments EtOH/H2O/Gly/GMO/ML 20/60/5/7.5/7.5) was “maximum permeation was observed at estradiol concentrations below saturation”.

Regarding `CC(C)NCC(O)COc1cccc2[nH]ccc12` (stereo not shown) [pindolol free base, pindolol], in series [1] (ointment and solid matrix systems), the “dependence of flux on drug concentration” value was “classic Fickian dependence of flux on drug concentration”.

As for `CC(=O)[C@H]1CC[C@H]2[C@@H]3CCC4=CC(=O)CC[C@]4(C)[C@H]3CC[C@]12C` [progesterone], the Flux is given as 2.12 ± 0.47 μg/cm^2 /hr in series [1] (Table 1 system 1, 75.0 mg/ml (saturated), 60/22.5/10/2.5/2.5/2.5 EtOH/H2O/Gly/GDO/ML/OA, N=8); 4.51 ± 1.37 μg/cm^2 /hr in series [1] (Table 1 system 2, 50 mg/ml, 60/22.5/10/2.5/2.5/2.5 EtOH/H2O/Gly/GDO/ML/OA, N=18); 5.52 ± 1.38 μg/cm^2 /hr in series [1] (Table 1 system 3, 25 mg/ml, 60/22.5/10/2.5/2.5/2.5 EtOH/H2O/Gly/GDO/ML/OA, N=3); 3.35 ± 2.18 μg/cm^2 /hr in series [1] (Table 1 system 4, 75 mg/ml (saturated), 60/22.5/10/2.5/2.5/2.5 EtOH/H2O/Gly/GMO/ML/OA, N=8); 7.63 ± 3.00 μg/cm^2 /hr in series [1] (Table 1 system 5, 50 mg/ml, 60/22.5/10/2.5/2.5/2.5 EtOH/H2O/Gly/GMO/ML/OA, N=18); 8.18 ± 0.90 μg/cm^2 /hr in series [1] (Table 1 system 6, 37.5 mg/ml, 60/22.5/10/2.5/2.5/2.5 EtOH/H2O/Gly/GMO/ML/OA, N=6). Further, the Flux in series [1] (Table 1 system 7, 25 mg/ml, 60/22.5/10/2.5/2.5/2.5 EtOH/H2O/Gly/GMO/ML/OA, N=18) was determined as 6.37 ± 1.88 μg/cm^2 /hr; in series [1] (Table 1 system 8, 10 mg/ml, 60/22.5/10/2.5/2.5/2.5 EtOH/H2O/Gly/GMO/ML/OA, N=3), 1.84 ± 0.33 μg/cm^2 /hr; in series [1] (Table 2 system 1, 50 mg/ml (saturated), 60/22.5/10/2.5/2.5/2.5 EtOH/H2O/Gly/GDO/ML/OA, N=12), 6.01 ± 1.73 μg/cm^2 /hr; in series [1] (Table 2 system 2, 30 mg/ml, 60/28/10/1/1 EtOH/H2O/Gly/GMO/ML, N=3), 13.03 ± 3.35 μg/cm^2 /hr; in series [1] (Table 2 system 3, 25 mg/ml, 60/28/10/1/1 EtOH/H2O/Gly/GMO/ML, N=3), 12.98 ± 2.06 μg/cm^2 /hr; in series [1] (Table 2 system 4, 20 mg/ml, 60/28/10/1/1 EtOH/H2O/Gly/GMO/ML, N=9), 15.89 ± 6.81 μg/cm^2 /hr. Also, the Flux in series [1] (Table 2 system 5, 15 mg/ml, 60/28/10/1/1 EtOH/H2O/Gly/GMO/ML, N=12) turned out to be 13.13 ± 1.87 μg/cm^2 /hr; in series [1] (Table 2 system 6, 10 mg/ml, 60/28/10/1/1/1 EtOH/H2O/Gly/GMO/ML, N=5), 11.13 ± 1.98 μg/cm^2 /hr. In series [1] (Table 1 systems, except 8), the “flux at subsaturated concentrations versus at saturation” value was “significantly greater”. In addition, in series [1] (Table 2 systems), the “fluxes at concentrations below saturation versus at saturation” value is recorded as “significantly greater than at saturation”.
